How the values were obtained:
[1] = target: T1, pre-formed fibrils of Aβ42 (Homo sapiens, UniProt P05067); assay: ThT-binding assay, disaggregation of pre-formed Aβ42 fibrils; assay type: biochemical; conditions: for % amyloid of Aβ42: disaggregation of pre-formed Aβ42 (10 µM) fibrils
T1 construct: purchased rPeptide (USA)
Description: (§1) For efficient treatment of proteinopathies it may be advantageous to disassemble amyloid aggregates/fibrils which are usually already present at the time of diagnosis[75]–[77]. […] Then, various doses of the hybrid molecules were added to the pre-formed fibrils and the mixtures were incubated for additional 10 h. The process of disaggregation was monitored by ThT-binding assay, CD spectroscopy, TEM and Congo red staining (Fig. 5).
(§2) The experiment was performed according to the previous report. […] Kinetics fluorescence data were collected at 37 °C in triplicate using Infinite M200 microplate reader (Tecan, Switzerland), with measurements acquired at 15 min intervals. Excitation and emission wavelengths were set at 440 nm and 485 nm, respectively.

[2] = target: T2, pre-formed fibrils of hIAPP (Homo sapiens, UniProt P10997); assay: ThT-binding assay, disaggregation of pre-formed hIAPP fibrils; assay type: biochemical; conditions: for % amyloid of hIAPP in absence or presence of inhibitors: hIAPP 10 µM; for Normalized ThT fluorescence kinetics: hIAPP (10 µM) : molecule 1:5
T2 construct: hIAPP is a 37-amino acid neuroendocrine peptide hormone; purchased Peptide 2.0 (USA)
T2 sequence (P10997 34-70 limits assumed): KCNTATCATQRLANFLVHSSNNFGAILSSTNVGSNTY
Description: as §1, §2

[3] = target: T2, pre-formed fibrils of hIAPP; assay: CD spectroscopy of pre-formed hIAPP fibrils with the tested molecules; conditions: hIAPP : molecule (1:5)
Description: as §1
The blank was subtracted from the acquired CD spectra. For the CD study in the presence of the tryptophan-galacosylamine molecules, the spectra of hybrid molecules were also recorded separately and subtracted from the respective sample spectra. The normalized data were plotted using Origin pro 2015 software.

[4] = compound added to pre-formed fibrils

T1 sequence (P05067 672-713 limits assumed): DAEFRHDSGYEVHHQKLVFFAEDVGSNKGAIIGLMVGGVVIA

Structure (SMILES): NC(Cc1c[nH]c2ccccc12)C(=O)NC(Cc1c[nH]c2ccccc12)C(=O)O (stereo not shown) [WW]
- increase of ThT fluorescence intensity of pre-formed Aβ42 fibrils [1, 4]: ~ 20%
- % amyloid of Aβ42 ([1]; molar ratio Aβ42:tested molecule (1:1)): 105.449%
- % amyloid of Aβ42 ([1]; molar ratio Aβ42:tested molecule (1:5)): 118.857%
- % amyloid of Aβ42 ([1]; molar ratio Aβ42:tested molecule (5:1)): 102.097%
- increase of ThT signal of pre-formed hIAPP fibrils [2, 4]: 20%
- % amyloid of hIAPP in absence or presence of inhibitors ([2]; molar ratio hIAPP:tested molecule 1:1): 112.662%
- % amyloid of hIAPP in absence or presence of inhibitors ([2]; molar ratio hIAPP:tested molecule 1:5): 117.610%
- % amyloid of hIAPP in absence or presence of inhibitors ([2]; molar ratio hIAPP:tested molecule 5:1): 104.704%
- Normalized ThT fluorescence kinetics ([2]; time 10.25 h): 100.289
- Normalized ThT fluorescence kinetics ([2]; time 10.5 h): 101.480
- Normalized ThT fluorescence kinetics ([2]; time 10.75 h): 103.392
- Normalized ThT fluorescence kinetics ([2]; time 11 h): 104.551
- Normalized ThT fluorescence kinetics ([2]; time 11.25 h): 105.696
- Normalized ThT fluorescence kinetics ([2]; time 11.5 h): 107.934
- Normalized ThT fluorescence kinetics ([2]; time 11.75 h): 110.096
- Normalized ThT fluorescence kinetics ([2]; time 12 h): 110.792
- Normalized ThT fluorescence kinetics ([2]; time 12.25 h): 111.709
- Normalized ThT fluorescence kinetics ([2]; time 12.5 h): 113.122
- Normalized ThT fluorescence kinetics ([2]; time 12.75 h): 114.844
- Normalized ThT fluorescence kinetics ([2]; time 13 h): 115.638
- Normalized ThT fluorescence kinetics ([2]; time 13.25 h): 116.172
- Normalized ThT fluorescence kinetics ([2]; time 13.5 h): 117.523
- Normalized ThT fluorescence kinetics ([2]; time 13.75 h): 117.888
- Normalized ThT fluorescence kinetics ([2]; time 14 h): 118.165
- Normalized ThT fluorescence kinetics ([2]; time 14.25 h): 118.126
- Normalized ThT fluorescence kinetics ([2]; time 14.5 h): 117.561
- Normalized ThT fluorescence kinetics ([2]; time 14.75 h): 117.932
- Normalized ThT fluorescence kinetics ([2]; time 15 h): 118.466
- Normalized ThT fluorescence kinetics ([2]; time 15.25 h): 118.713
- Normalized ThT fluorescence kinetics ([2]; time 15.5 h): 118.486
- Normalized ThT fluorescence kinetics ([2]; time 15.75 h): 118.695
- Normalized ThT fluorescence kinetics ([2]; time 16 h): 118.857
- Normalized ThT fluorescence kinetics ([2]; time 16.25 h): 118.835
- Normalized ThT fluorescence kinetics ([2]; time 16.5 h): 118.502
- Normalized ThT fluorescence kinetics ([2]; time 16.75 h): 118.398
- Normalized ThT fluorescence kinetics ([2]; time 17 h): 118.694
- Normalized ThT fluorescence kinetics ([2]; time 17.25 h): 118.398
- Normalized ThT fluorescence kinetics ([2]; time 17.5 h): 118.456
- Normalized ThT fluorescence kinetics ([2]; time 17.75 h): 118.427
- Normalized ThT fluorescence kinetics ([2]; time 18 h): 117.817
- Normalized ThT fluorescence kinetics ([2]; time 18.25 h): 117.835
- Normalized ThT fluorescence kinetics ([2]; time 18.5 h): 117.859
- Normalized ThT fluorescence kinetics ([2]; time 18.75 h): 117.995
- Normalized ThT fluorescence kinetics ([2]; time 19 h): 117.576
- Normalized ThT fluorescence kinetics ([2]; time 19.25 h): 117.741
- Normalized ThT fluorescence kinetics ([2]; time 19.5 h): 118.044
- Normalized ThT fluorescence kinetics ([2]; time 19.75 h): 117.625
- Normalized ThT fluorescence kinetics ([2]; time 20 h): 117.610
- Normalized CD spectra ([3]; wavelength 190.00): -1159830.00
- Normalized CD spectra ([3]; wavelength 190.50): -799592.59
- Normalized CD spectra ([3]; wavelength 191.00): -466296.57
- Normalized CD spectra ([3]; wavelength 191.50): -159943.13
- Normalized CD spectra ([3]; wavelength 192.00): 119467.75
- Normalized CD spectra ([3]; wavelength 192.50): 371936.05
- Normalized CD spectra ([3]; wavelength 193.00): 597461.77
- Normalized CD spectra ([3]; wavelength 193.50): 796044.93
- Normalized CD spectra ([3]; wavelength 194.00): 967685.51
- Normalized CD spectra ([3]; wavelength 194.50): 1212380.23
- Normalized CD spectra ([3]; wavelength 195.00): 1290140.24
- Normalized CD spectra ([3]; wavelength 195.50): 1323180.24
- Normalized CD spectra ([3]; wavelength 196.00): 1393960.26
- Normalized CD spectra ([3]; wavelength 196.50): 1424490.23
- Normalized CD spectra ([3]; wavelength 197.00): 1413320.40
- Normalized CD spectra ([3]; wavelength 197.50): 1387150.18
- Normalized CD spectra ([3]; wavelength 198.00): 1299100.11
- Normalized CD spectra ([3]; wavelength 198.50): 1256630.40
- Normalized CD spectra ([3]; wavelength 199.00): 1187490.08
- Normalized CD spectra ([3]; wavelength 199.50): 1142090.27
- Normalized CD spectra ([3]; wavelength 200.00): 1101290.79
- Normalized CD spectra ([3]; wavelength 200.50): 1045740.12
- Normalized CD spectra ([3]; wavelength 201.00): 960554.59
- Normalized CD spectra ([3]; wavelength 201.50): 884170.56
- Normalized CD spectra ([3]; wavelength 202.00): 793224.29
- Normalized CD spectra ([3]; wavelength 202.50): 710397.29
- Normalized CD spectra ([3]; wavelength 203.00): 623023.93
- Normalized CD spectra ([3]; wavelength 203.50): 548091.19
- Normalized CD spectra ([3]; wavelength 204.00): 460178.98
- Normalized CD spectra ([3]; wavelength 204.50): 362812.96
- Normalized CD spectra ([3]; wavelength 205.00): 267913.28
- Normalized CD spectra ([3]; wavelength 205.50): 183033.71
- Normalized CD spectra ([3]; wavelength 206.00): 99125.43
- Normalized CD spectra ([3]; wavelength 206.50): 21202.95
- Normalized CD spectra ([3]; wavelength 207.00): -58441.14
- Normalized CD spectra ([3]; wavelength 207.50): -134432.91
- Normalized CD spectra ([3]; wavelength 208.00): -202839.97
- Normalized CD spectra ([3]; wavelength 208.50): -260187.32
- Normalized CD spectra ([3]; wavelength 209.00): -323573.72
- Normalized CD spectra ([3]; wavelength 209.50): -382447.61
- Normalized CD spectra ([3]; wavelength 210.00): -437399.79
- Normalized CD spectra ([3]; wavelength 210.50): -489520.86
- Normalized CD spectra ([3]; wavelength 211.00): -539599.27
- Normalized CD spectra ([3]; wavelength 211.50): -576249.85
- Normalized CD spectra ([3]; wavelength 212.00): -613623.93
- Normalized CD spectra ([3]; wavelength 212.50): -639995.46
- Normalized CD spectra ([3]; wavelength 213.00): -663323.35
- Normalized CD spectra ([3]; wavelength 232.00): -332238.92
- Normalized CD spectra ([3]; wavelength 232.50): -324045.26
- Normalized CD spectra ([3]; wavelength 233.00): -310464.00
- Normalized CD spectra ([3]; wavelength 233.50): -306656.69
- Normalized CD spectra ([3]; wavelength 234.00): -298160.53
- Normalized CD spectra ([3]; wavelength 234.50): -288025.21
- Normalized CD spectra ([3]; wavelength 235.00): -277617.45
- Normalized CD spectra ([3]; wavelength 235.50): -265647.30
- Normalized CD spectra ([3]; wavelength 236.00): -250898.81
- Normalized CD spectra ([3]; wavelength 236.50): -242222.13
- Normalized CD spectra ([3]; wavelength 237.00): -231613.39
- Normalized CD spectra ([3]; wavelength 237.50): -223355.72
- Normalized CD spectra ([3]; wavelength 238.00): -218172.86
- Normalized CD spectra ([3]; wavelength 238.50): -206535.49
- Normalized CD spectra ([3]; wavelength 239.00): -191737.01
- Normalized CD spectra ([3]; wavelength 239.50): -180445.52
- Normalized CD spectra ([3]; wavelength 240.00): -179664.78
- Normalized CD spectra ([3]; wavelength 240.50): -172296.10
- Normalized CD spectra ([3]; wavelength 241.00): -162102.32
- Normalized CD spectra ([3]; wavelength 241.50): -148455.67
- Normalized CD spectra ([3]; wavelength 242.00): -149233.62
- Normalized CD spectra ([3]; wavelength 242.50): -139443.53
- Normalized CD spectra ([3]; wavelength 243.00): -134411.20
- Normalized CD spectra ([3]; wavelength 243.50): -135270.09
- Normalized CD spectra ([3]; wavelength 244.00): -127740.28
- Normalized CD spectra ([3]; wavelength 244.50): -125334.77
- Normalized CD spectra ([3]; wavelength 245.00): -119297.62
- Normalized CD spectra ([3]; wavelength 245.50): -115863.12
- Normalized CD spectra ([3]; wavelength 246.00): -113285.78
- Normalized CD spectra ([3]; wavelength 246.50): -114529.09
- Normalized CD spectra ([3]; wavelength 247.00): -113972.59
- Normalized CD spectra ([3]; wavelength 247.50): -115521.93
- Normalized CD spectra ([3]; wavelength 248.00): -110033.91
- Normalized CD spectra ([3]; wavelength 248.50): -107626.80
- Normalized CD spectra ([3]; wavelength 249.00): -94087.61
- Normalized CD spectra ([3]; wavelength 249.50): -91943.44
- Normalized CD spectra ([3]; wavelength 250.00): -91987.89
- Normalized CD spectra ([3]; wavelength 250.50): -83982.51
- Normalized CD spectra ([3]; wavelength 251.00): -78786.13
- Normalized CD spectra ([3]; wavelength 251.50): -77492.66
- Normalized CD spectra ([3]; wavelength 252.00): -81506.91
- Normalized CD spectra ([3]; wavelength 252.50): -74477.64
- Normalized CD spectra ([3]; wavelength 253.00): -78503.70
- Normalized CD spectra ([3]; wavelength 253.50): -82822.05
- Normalized CD spectra ([3]; wavelength 254.00): -81558.46
- Normalized CD spectra ([3]; wavelength 254.50): -84392.86
- Normalized CD spectra ([3]; wavelength 255.00): -84114.71
- Normalized CD spectra ([3]; wavelength 255.50): -85462.25
- Normalized CD spectra ([3]; wavelength 256.00): -87106.95
- Normalized CD spectra ([3]; wavelength 256.50): -89048.81
- Normalized CD spectra ([3]; wavelength 257.00): -91287.84
- Normalized CD spectra ([3]; wavelength 257.50): -93824.03
- Normalized CD spectra ([3]; wavelength 258.00): -96657.38

Source: paper PMC7468108 (Communications Biology, 2020)
